Measured values published in patent publication US20020137929A1, “1 - (3-heterocyclylphenyl) isothiourea, -isourea, -guanidine and -amidine herbicidal agents” (Intellectual Property Department, BASF Aktiengesellschaft, priority 1998, published 2002).

What was measured:
[1] = system: CASOB (Sicklepod); test: Postemergence herbicidal evaluation; assay type: in vivo, Cassia obtusifolia
Method in brief: (§1)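 ~2-wk seedlings; postemergence spray, 40 psi; vehicle 1:1 acetone:water + 0.5% Tween 20; rate ≈0.0156–0.500 kg/ha; greenhouse hold; scored 4–5 wk after treatment, 0–9 scale vs control; repeat tests averaged.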

[2] = system: ORYSAT (Rice, Tebonnet); test: Preemergence herbicidal evaluation; assay type: in vivo, Oryza sativa, (L.) Tebonnet; conditions: rated 4-5 weeks after treatment
Method in brief: (§2)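 Seeds were mixed with potting soil and planted on about one inch of soil, then sprayed with test compound in aqueous acetone at about 0.0156 to 0.500 kg per hectare. Plants grew under standard greenhouse care and were visually rated 0-9 against untreated controls 4-5 weeks post-treatment.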

[3] = system: CYPIR (Rice Flatsedge); test: Preemergence weed control under flooded paddy conditions; assay type: in vivo, Cyperus iria; conditions: rated 3-4 weeks after treatment
Method in brief: (§3)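 Seeds or propagules sown in top 0.5 cm of silt loam soil, flooded 1.5 to 3 cm above surface throughout. Compound in 50/50 v/v aqueous/acetone pipetted into flood water at about 0.0313 to 0.500 kg/ha. Visual 0-9 rating versus control after three to four weeks in greenhouse.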

[4] = system: IPOHE (Morningglory, Ivyleaf); test: Preemergence herbicidal evaluation; assay type: in vivo, Ipomoea hederacea; conditions: rated 4-5 weeks after treatment
Method in brief: as §2

[5] = system: TRZAWR (Wheat, Winter, cv Riband); test: Preemergence herbicidal evaluation; assay type: in vivo, Triticum aestivum; conditions: rated 4-5 weeks after treatment
Method in brief: as §2

[6] = system: ECHORC (Watergrass (Calif.)); test: Postemergence weed control under flooded paddy conditions; assay type: in vivo, Echinochloa oryzoides; conditions: postemergence weeds, 3-4 weeks after treatment
Method in brief: (§4)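 Containers holding 3–5 cm weeds and rice at 1.5–2.5 leaves are flooded to 1.5–3 cm above soil. Compound in 50/50 v/v aqueous/acetone is then added directly to the water, about 0.0313–0.500 kg/ha. Plants are kept in the greenhouse and rated 0–9 visually at 3–4 weeks.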

[7] = system: ECHORC (Watergrass (Calif.)); test: Preemergence weed control under flooded paddy conditions; assay type: in vivo, Echinochloa oryzoides; conditions: rated 3-4 weeks after treatment
Method in brief: as §3

[8] = system: ZEAMX (Corn, Field); test: Postemergence herbicidal evaluation; assay type: in vivo, Zea mays
Method in brief: as §1

[9] = system: AMBEL (Ragweed, Common); test: Preemergence herbicidal evaluation; assay type: in vivo, Ambrosia artemisifolia; conditions: rated 4-5 weeks after treatment
Method in brief: as §2

[10] = system: CYPSE (Flatsedge); test: Preemergence weed control under flooded paddy conditions; assay type: in vivo, Cyperus serotinus; conditions: rated 3-4 weeks after treatment
Method in brief: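 Flooded-pot preemergence screen with silt loam and seeds in the upper 0.5 cm. Dose about 0.0313 to 0.500 kg/ha, delivered into flood water; visual 0-9 score after 3 to 4 weeks.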

[11] = system: CYPSE (Flatsedge); test: Postemergence weed control under flooded paddy conditions; assay type: in vivo, Cyperus serotinus; conditions: postemergence weeds, 3-4 weeks after treatment
Method in brief: as §4

[12] = system: ZEAMX (Corn, Field); test: Preemergence herbicidal evaluation; assay type: in vivo, Zea mays; conditions: rated 4-5 weeks after treatment
Method in brief: as §2

[13] = system: CHEAL (Lambsquarters, Common); test: Preemergence herbicidal evaluation; assay type: in vivo, Chenopodium album; conditions: rated 4-5 weeks after treatment
Method in brief: as §2

[14] = system: GALAP (Galium); test: Postemergence herbicidal evaluation; assay type: in vivo, Galium aparine
Method in brief: as §1

## CCOC(=O)CN1C(=O)CSC1=Nc1cc(N2C(=O)C3=C(CCCC3)C2=O)c(F)cc1Cl [Compound 47, Ethyl 2-{[2-chloro-5-(1-cyclohexene-1,2-dicarboximido)-4-fluorophenyl]imino}-4-oxo-3-thiazolidineacetate]
[1]; Rate 0.0156 kg/ha
  Postemergence herbicidal rating CASOB: 0.0
[1]; Rate 0.0313 kg/ha
  Postemergence herbicidal rating CASOB: 2.0
[1]; Rate 0.0625 kg/ha
  Postemergence herbicidal rating CASOB: 2.0
[2]; rate 0.0156 kg/ha
  Preemergence herbicidal rating ORYSAT: 0.0
[2]; rate 0.0313 kg/ha
  Preemergence herbicidal rating ORYSAT: 0.0
[2]; rate 0.0625 kg/ha
  Preemergence herbicidal rating ORYSAT: 0.0
[2]; rate 0.1250 kg/ha
  Preemergence herbicidal rating ORYSAT: 0.0
[2]; rate 0.2500 kg/ha
  Preemergence herbicidal rating ORYSAT: 0.0
[3]; 0.0313 kg/ha
  Herbicidal rating CYPIR: 0.0
[3]; 0.0625 kg/ha
  Herbicidal rating CYPIR: 0.0
[3]; 0.1250 kg/ha
  Herbicidal rating CYPIR: 4.0
[3]; 0.2500 kg/ha
  Herbicidal rating CYPIR: 6.0
[4]; rate 0.0156 kg/ha
  Preemergence herbicidal rating IPOHE: 0.0
[4]; rate 0.0313 kg/ha
  Preemergence herbicidal rating IPOHE: 0.0
[4]; rate 0.0625 kg/ha
  Preemergence herbicidal rating IPOHE: 0.0
[4]; rate 0.1250 kg/ha
  Preemergence herbicidal rating IPOHE: 0.0
[4]; rate 0.2500 kg/ha
  Preemergence herbicidal rating IPOHE: 9.0
[5]; rate 0.0156 kg/ha
  Preemergence herbicidal rating TRZAWR: 0.0
[5]; rate 0.0313 kg/ha
  Preemergence herbicidal rating TRZAWR: 0.0
[5]; rate 0.0625 kg/ha
  Preemergence herbicidal rating TRZAWR: 0.0
[5]; rate 0.1250 kg/ha
  Preemergence herbicidal rating TRZAWR: 0.0
[5]; rate 0.2500 kg/ha
  Preemergence herbicidal rating TRZAWR: 0.0
[6]; rate 0.0313 kg/ha
  Herbicidal rating ECHORC: 0.0
[6]; rate 0.0625 kg/ha
  Herbicidal rating ECHORC: 2.0
[6]; rate 0.1250 kg/ha
  Herbicidal rating ECHORC: 4.0
[6]; rate 0.2500 kg/ha
  Herbicidal rating ECHORC: 7.0
[7]; 0.0313 kg/ha
  Herbicidal rating ECHORC: 0.0
[7]; 0.0625 kg/ha
  Herbicidal rating ECHORC: 2.0
[7]; 0.1250 kg/ha
  Herbicidal rating ECHORC: 4.0
[7]; 0.2500 kg/ha
  Herbicidal rating ECHORC: 7.0
[8]; Rate 0.0156 kg/ha
  Postemergence herbicidal rating ZEAMX: 5.0
[8]; Rate 0.0313 kg/ha
  Postemergence herbicidal rating ZEAMX: 7.0
[8]; Rate 0.0625 kg/ha
  Postemergence herbicidal rating ZEAMX: 7.5
[9]; rate 0.0156 kg/ha
  Preemergence herbicidal rating AMBEL: 0.0
[9]; rate 0.0313 kg/ha
  Preemergence herbicidal rating AMBEL: 0.0
[9]; rate 0.0625 kg/ha
  Preemergence herbicidal rating AMBEL: 0.0
[9]; rate 0.1250 kg/ha
  Preemergence herbicidal rating AMBEL: 0.0
[9]; rate 0.2500 kg/ha
  Preemergence herbicidal rating AMBEL: 0.0
[10]; 0.0313 kg/ha
  Herbicidal rating CYPSE: 0.0
[10]; 0.0625 kg/ha
  Herbicidal rating CYPSE: 0.0
[10]; 0.1250 kg/ha
  Herbicidal rating CYPSE: 0.0
[10]; 0.2500 kg/ha
  Herbicidal rating CYPSE: 0.0
[11]; rate 0.0313 kg/ha
  Herbicidal rating CYPSE: 0.0
[11]; rate 0.0625 kg/ha
  Herbicidal rating CYPSE: 0.0
[11]; rate 0.1250 kg/ha
  Herbicidal rating CYPSE: 0.0
[11]; rate 0.2500 kg/ha
  Herbicidal rating CYPSE: 0.0
[12]; rate 0.0156 kg/ha
  Preemergence herbicidal rating ZEAMX: 0.0
[12]; rate 0.0313 kg/ha
  Preemergence herbicidal rating ZEAMX: 0.0
[12]; rate 0.0625 kg/ha
  Preemergence herbicidal rating ZEAMX: 0.0
[12]; rate 0.1250 kg/ha
  Preemergence herbicidal rating ZEAMX: 0.0
[12]; rate 0.2500 kg/ha
  Preemergence herbicidal rating ZEAMX: 2.0
[13]; rate 0.0156 kg/ha
  Preemergence herbicidal rating CHEAL: 9.0
[13]; rate 0.0313 kg/ha
  Preemergence herbicidal rating CHEAL: 9.0
[13]; rate 0.0625 kg/ha
  Preemergence herbicidal rating CHEAL: 9.0
[13]; rate 0.1250 kg/ha
  Preemergence herbicidal rating CHEAL: 9.0
[13]; rate 0.2500 kg/ha
  Preemergence herbicidal rating CHEAL: 9.0
[14]; Rate 0.0156 kg/ha
  Postemergence herbicidal rating GALAP: 0.0
[14]; Rate 0.0313 kg/ha
  Postemergence herbicidal rating GALAP: 3.0
[14]; Rate 0.0625 kg/ha
  Postemergence herbicidal rating GALAP: 3.0
